Measured values as given in article PMC3326631, “Synthesis and biological evaluation of nojirimycin- and pyrrolidine-based trehalase inhibitors” (Beilstein Journal of Organic Chemistry, 2012).
“Also recorded” adds a separate entry of the source. Where two headings read alike, the source gives them in different places.

What was measured:
[1] = biological target: T1, porcine kidney trehalase (Sus scrofa, UniProt I3LIR5); conditions: mean ± SE, cited from earlier work
T1 construct: trehalases from porcine kidney and insects have different recognition requirements; from tissue; host or cells: porcine kidney
T1 sequence (I3LIR5 24-583): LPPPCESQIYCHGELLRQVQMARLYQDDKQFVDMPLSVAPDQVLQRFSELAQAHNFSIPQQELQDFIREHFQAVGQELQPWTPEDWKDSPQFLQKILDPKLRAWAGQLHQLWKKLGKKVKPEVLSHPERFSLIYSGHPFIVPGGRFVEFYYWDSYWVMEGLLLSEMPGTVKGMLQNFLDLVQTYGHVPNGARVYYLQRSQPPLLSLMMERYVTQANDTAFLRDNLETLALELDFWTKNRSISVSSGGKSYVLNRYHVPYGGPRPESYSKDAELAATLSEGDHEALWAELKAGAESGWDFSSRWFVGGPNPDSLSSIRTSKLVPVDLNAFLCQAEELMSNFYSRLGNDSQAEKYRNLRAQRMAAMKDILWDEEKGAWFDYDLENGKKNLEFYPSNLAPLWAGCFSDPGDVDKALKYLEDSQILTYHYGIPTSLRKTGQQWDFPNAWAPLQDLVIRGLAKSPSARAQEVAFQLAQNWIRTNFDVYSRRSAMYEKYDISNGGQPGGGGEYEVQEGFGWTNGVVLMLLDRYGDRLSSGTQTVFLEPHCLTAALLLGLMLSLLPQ

[2] = biological target: C. riparius trehalase (Chironomus riparius, UniProt J7EJ73); assay: Trehalase inhibition, coupled assay with glucose-6-phosphate dehydrogenase and hexokinase (insect enzyme); assay type: biochemical; conditions: for selectivity between insect and porcine trehalase (times more active): C. riparius trehalase versus porcine kidney trehalase, from IC50 values; for inhibitory activity against insect trehalase (in words): screening at fixed concentration of 1 mM; for IC50 C. riparius trehalase: trehalose fixed close to Km (0.5 mM), 30 °C, mean ± SE of three independent experiments
C. riparius trehalase, sequence (J7EJ73 entry or part of it): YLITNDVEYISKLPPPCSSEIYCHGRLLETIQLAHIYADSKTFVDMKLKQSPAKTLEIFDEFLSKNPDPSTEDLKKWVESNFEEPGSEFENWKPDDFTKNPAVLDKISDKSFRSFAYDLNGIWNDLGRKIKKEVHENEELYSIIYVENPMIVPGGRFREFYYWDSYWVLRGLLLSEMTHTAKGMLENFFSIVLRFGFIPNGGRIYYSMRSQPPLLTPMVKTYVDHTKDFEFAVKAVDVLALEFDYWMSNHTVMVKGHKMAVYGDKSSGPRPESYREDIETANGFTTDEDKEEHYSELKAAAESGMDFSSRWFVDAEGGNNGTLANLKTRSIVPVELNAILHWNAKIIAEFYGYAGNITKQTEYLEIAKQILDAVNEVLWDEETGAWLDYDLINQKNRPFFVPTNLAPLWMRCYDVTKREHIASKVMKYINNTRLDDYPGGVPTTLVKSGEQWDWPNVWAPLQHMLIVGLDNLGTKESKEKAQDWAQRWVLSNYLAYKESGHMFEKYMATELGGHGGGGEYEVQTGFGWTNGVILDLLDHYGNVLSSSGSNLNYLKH
Method: (§1) Trehalase activity was measured through a coupled assay with glucose-6-phosphate dehydrogenase and hexokinase according to Wegener et al.. To examine the potential of each compound as a trehalase inhibitor, screening assays of potential inhibitors were carried out at a fixed concentration of 1 mM. […] Initial rates as a function of inhibitor concentration were fitted to the following equation: […]
(§2) where νi and ν are the initial rate in the presence and in the absence of the inhibitor, respectively, [I] is the inhibitor concentration, IC50 is the inhibitor concentration producing half-maximal inhibition, and n is the Hill coefficient.
(§3) All enzyme assays were performed in triplicate at 30 °C by using sample volumes varying from 5 to 20 µL in 1 mL test tubes and using a Cary3 UV–vis spectrophotometer. Enzyme activities were analyzed by Cary Win UV application software for Windows XP. The specific activity (U mg^−1) was expressed as µmol min^−1(mg protein)^−1. Values were expressed as mean ± SE of replicated.

[3] = biological target: T1, porcine kidney trehalase; assay: Trehalase inhibition, coupled assay with glucose-6-phosphate dehydrogenase and hexokinase (porcine enzyme); assay type: biochemical; conditions: for inhibitory activity against porcine trehalase (in words): screening at fixed concentration of 1 mM; for IC50 porcine kidney trehalase / IC50: trehalose fixed close to Km (2.5 mM), 30 °C, mean ± SE of three independent experiments
Method: Synthesized compounds 10, 12–14, 16, 17 and 19–21 were tested for their inhibitory activity against insect (C. riparius) and porcine kidney trehalase.
as §1, with “Even if the synthesis unexpectedly afforded a structurally quite heterogeneous set of compounds, biological data give some hints toward the design of selective inhibitors of trehalases of different origin. Trehalase” for “Trehalase”
as §2, §3

Row | SMILES | inhibitory activity against porcine trehalase (in words) [3] | IC50 porcine kidney trehalase [3] | inhibitory activity against insect trehalase (in words) [2] | selectivity between insect and porcine trehalase (times more active) [2] | also measured
1 | OC[C@H]1NC[C@H](O)[C@@H](O)[C@@H]1O [Compound 7, 1-deoxynojirimycin, reference compound] |  |  |  | only twice as active on insect trehalase | IC50 [1]: 5.96 ± 0.62 µM
2 | CC[C@@H]1[C@H](O)[C@@H](O)[C@H](O)[C@@H](CO)N1C(=O)NCc1ccccc1 [Compound 8] |  |  |  |  | IC50 ([1]; trehalose fixed at Km): 100 ± 8.82 µM
3 | OC[C@H]1NC[C@@H](O)[C@@H]1O [Compound 9, DAB-1, reference compound] |  |  |  | twice more active on porcine trehalase | IC50 ([1]; trehalose fixed at Km): 10.6 ± 2.42 µM
4 | CCC[C@@H]1[C@H](O)[C@@H](O)[C@H](O)[C@@H](CO)N1C(=O)NCc1ccccc1 [Compound 10] | no activity | no inhibition | inhibitors only of insect trehalase |  | 
5 | NC(=O)N1C[C@H](O)[C@@H](O)[C@H](O)[C@H]1CO [Compound 12] | active |  |  | five times | IC50 [3]: 154 ± 17 µM
6 | CCC[C@H]1N[C@H](CO)[C@@H](O)[C@H](O)[C@H]1O [Compound 13] | active |  |  | around ten times more active towards insect trehalase; also recorded: ten-fold selectivity towards insect trehalase | IC50 [3]: 109 ± 38 µM
7 | CCC[C@H]1N[C@H](CO)[C@@H](O)[C@@H]1O [Compound 14] | no activity | no inhibition | inhibitors only of insect trehalase |  | 

Second part, led by results:

Row | inhibitory activity against porcine trehalase (in words) [3] | IC50 porcine kidney trehalase [3] | inhibitory activity against insect trehalase (in words) [2] | SMILES | selectivity between insect and porcine trehalase (times more active) [2] | also measured
8 | no activity | no inhibition | inhibitors only of insect trehalase | CCC[C@@H]1[C@@H](O)[C@H](O)[C@@H](CO)N1C(N)=O [Compound 16] |  | 
9 | do not possess any activity | no inhibition | do not possess any activity | CCC[C@@H]1N[C@H](CO)[C@@H](O)[C@H]1O [Compound 17] |  | IC50 C. riparius trehalase [2]: no inhibition
10 | do not possess any activity | no inhibition | do not possess any activity | CCC[C@H]1[C@H](O)[C@H](O)[C@@H](CO)N1C(N)=O [Compound 19] |  | IC50 C. riparius trehalase [2]: no inhibition
11 | active |  |  | CCCCCCCCN1C[C@@H](O)[C@H](O)[C@H]1CO [Compound 20] |  | IC50 [3]: 537 ± 80 µM
12 |  | no inhibition |  | CCCCCCCC[C@H]1N[C@H](CO)[C@@H](O)[C@@H]1O [Compound 21] |  | IC50 C. riparius trehalase [2]: no inhibition
